Laboratory results as given in patent US12691114B2, “Compositions for inhibition of herpesviruses” (The Medical College of Wisconsin, Inc., priority 2020, dated 2026).
Like-named read-outs stand apart in the source and are kept apart here.

Experiments:
HCMV TB40 = assay: Plaque reduction assay, HCMV TB40 in HFFs; format: cell-based, human cytomegalovirus; conditions: 10 days
Protocol: (§1) Plaque reduction assay: HFFs were seeded into 12-well plates (2×10^5 cells/well) and infected with HCMV TB40 at approximately 100 plaques/well. After 90 min, media were aspirated, and DMEM containing 0.5% carboxymethyl-cellulose (CMC), 4% fetal bovine serum (FBS), and drugs were added into duplicate wells. Following incubation at 37° C. for 10-12 days the overlay was removed, and plaques were counted after crystal violet staining. For HSV1 and HSV2 replication in Vero cells, the adsorption time was 60 min and plaques were counted after 36 h. Plaque assays in MEFs were completed after 3 days.
Viral protein expression was measured by Western blot.

[1] = tested on: GCV-resistant HCMV Towne (C607Y mutation in UL97); assay: microbe, parasite or virus in culture; format: cell-based, human cytomegalovirus
Excerpt: (§2) A GCV-resistant HCMV pp28-luciferase that contains a C607Y mutation in UL97 was reported^37. The HCMV TB40 strain was obtained from ATCC (VR-1578). Clinical isolates of Human Herpesvirus 1 and 2 (HSV1, HSV2) were collected from the Johns Hopkins Microbiology laboratory without identifiers that could link them to a specific patient. Mouse CMV (MCMV) Smith strain (ATCC VR-1399) was used for infection of MEFs.
Luciferase activity: Cell lysates were collected at 72 hpi and luciferase activity was determined using the Glomax-Multi+Detection System (Promega, Madison, WI) as described previously^20.
HCMV inhibition was measured by luciferase activity of pp28-recombinant Towne and pp28 GCV-resistant Towne strains of HCMV (72 hpi) and by plaque reduction using HCMV Towne or TB40 (10 days). Viral protein expression was measured by Western blot.

[2] = tested on: HCMV Towne viral proteins (IE1/2, pp65, UL84, UL44); assay: Immunoblot of viral protein expression in infected HFFs; format: cell-based, human cytomegalovirus; conditions: HCMV Towne MOI of 1 PFU/cell, 72 hpi
Protocol: SDS-polyacrylamide gel electrophoresis and immunoblot analysis: Cell lysates containing equal amount of proteins were mixed with an equal volume of sample buffer (125 mM Tris-HCL, pH 6.8, 4% SDS, 20% glycerol and 5% β-mercaptoethanol) and boiled at 100° C. for 10 min. Denatured proteins were resolved in Tris-glycine polyacrylamide gels (8-10%) and transferred to polyvinylidine difluoride (PVDF) membranes (Bio-Rad Laboratories, Hercules, CA) by electroblotting. Membranes were incubated in blocking solution [5% w/v non-fat dry milk and 0.1% Tween-20 in PBS (PBST)] for 1 h, washed with PBST, and incubated with primary antibodies at 4° C. overnight. Membranes were washed with PBST and incubated with horseradish peroxidase-conjugated secondary antibodies in PBST for 1 h at room temperature. Following washing with PBST, protein bands were visualized by chemiluminescence using SuperSignal West Dura and Pico reagents (Pierce Chemical, Rockford, IL).
Antibodies: The following antibodies were used—Mouse monoclonal anti-HCMV IE1 & IE2 (MAB810, Millipore, Billerica, MA), mouse monoclonal anti-HCMV UL83 (pp65, Vector Laboratories Inc., Burlingame, CA), mouse monoclonal anti-HCMV UL44, mouse monoclonal anti-HCMV UL84, and mouse anti-β-actin anti-mouse IgG (Santa Cruz Biotechnology, Santa Cruz, CA). Horseradish peroxidase (HRP)-conjugated anti-mouse IgG was from GE Healthcare (Waukesha, WI). Horseradish peroxidase (RP)-conjugated anti-rabbit IgG was from Cell Signaling (Beverly, MA).

HCMV Towne DNA = assay: Viral DNA by US17 real-time PCR in cells and supernatants; format: cell-based, human cytomegalovirus; conditions: Towne MOI=0.1; NFU1827 5 μM, MLS8554 2 μM, MLS8091 1.5 μM, 2955 3 μM, GCV 5 μM
Excerpt: DNA isolation and quantitative real-time (qPCR): Total DNA was isolated from non-infected control, and HCMV-infected HFFs using Wizard SV genomic DNA isolation kit (Promega, Madison, WI). To determine viral load in the supernatant, total DNA was isolated from supernatants using automated DNA extraction on the BioRobot M48 instrument (Qiagen, Valencia, CA). A US17 real-time PCR assay which targets 151-bp from the highly conserved US17 region of the CMV genome was used^39. The primers and probe for US17 are: […]

HSV1 clinical isolate = assay: Plaque reduction assay, HSV1 in Vero cells; format: cell-based, Human Herpesvirus 1; conditions: plaque reduction
Excerpt: as §2, with “Viruses and antiviral assays: A recombinant pp28-luciferase Towne HCMV strain expressing luciferase under the control of the UL99 (pp28) late promoter was reported to provide a highly-sensitive and reproducible reporter for drug screening^20. A GCV-resistant” for “A GCV-resistant”
as §1
Inhibition of other herpesviruses: Inhibition of herpes simplex 1 and 2 (HSV1, HSV2), Epstein Barr virus (EBV) and mouse CMV (MCMV) was tested with the five compounds. Plaque reductions assays were used for HSV1, HSV2 and MCMV. Inhibition of lytic EBV replication was measured by real-time PCR in AKATA cells following IgG induction. Only MLS8554 was active against HSV1, HSV2 and MCMV (Table 2).

[3] = pp28 GCV-resistant Towne, luciferase, 72 hpi, read-out: EC50—GCVR Towne

Structure (SMILES) | EC50 (HCMV TB40; Human betaherpesvirus 5, 240 h) [µM] | activity against GCV-resistant HCMV, in words [1] | viral protein expression by Western blot, in words [2] | viral DNA replication in cells, in words (HCMV Towne DNA) | viral DNA yield in supernatant, in words (HCMV Towne DNA) | EC50 (HCMV TB40) [µM] | activity against HSV1, in words (HSV1 clinical isolate) | EC50 (HSV1 clinical isolate; Vero cells, NA = Not active, read-out: EC50—HSV1-C1) [µM] | EC50 [1, 3] [µM] | EC50 ([1]; Human betaherpesvirus 5, read-out: EC50—GCVR Towne (μM)) [µM]
CC(C)NC(=O)C1CCN(C(=O)c2cc3sccc3n2Cc2ccc(Cl)cc2)CC1 [NCGC2955, 1-(4-(4-chlorobenzyl)-4H-thieno[3,2-b]pyrrole-5-carbonyl)-N-isopropylpiperidine-4-carboxamide] | 1.18 ± 0.2 | inhibited | strong reduction in viral protein expression including IE1 and IE2 | modest | modest |  |  |  |  | 
CCc1ccc(NC(=O)[C@H](Cc2c[nH]c3ccccc23)NC(=O)[C@@H]2Cc3ccccc3CN2)cc1 [MLS8554] |  | active | reduced expression of IE2, UL44, UL84 and pp65 | reduced | reduced | 0.34 | active | 1.78 ± 0.2 | 0.17 | 
CCN1CCN(CCCNC(=O)c2ccc3c(c2)sc2nc(-c4ccc(OC)cc4)cn23)CC1 [NFU1827, N-[3-(4-ethylpiperazin-1-yl)propyl]-4-(4-methoxyphenyl)-7-thia-2,5-diazatricyclo [6.4.0.02,6] dodeca-1(8),3,5,9,11-pentaene-10-carboxamide] | 1.21 ± 0.1 |  | reduced the level of both IE1 and IE2 | significantly reduced | significantly reduced |  | no activity |  |  | 0.84 ± 0.1
Nc1c(S(=O)(=O)c2cccs2)c2nc3ccccc3nc2n1Cc1ccccc1 [MLS8091] |  |  | Inhibition of all viral proteins | higher than that achieved with GCV | not significantly different from GCV | 0.33 | no activity |  | 0.26 ± 0.02 | 
